Assay results as given in patent US7875609B2, “Urea derivatives, processes for their preparation, their use as medicaments, and pharmaceutical compositions containing them” (Galapagos Sasu, priority 2005, dated 2011).
Where a name gives a salt, the structure may show the parent alone.

Legend:
[1] = tested on: serum level of PTH (1-34+1-84); test: PTH measurement on intact rats (serum PTH by IRMA after oral administration); type: in vivo, rat; conditions: for inhibition in vivo at 30 mg/kg: Rattus norvegicus, 0.5 h, oral, male Sprague-Dawley rats fasted 16 h, serum 30 min after dosing, read-out: % PTH reduction at 30 min. relative to the untreated group (intact rat)
Experimental: I—PTH Measurement on Intact Rats
After fasting for 16 hours, some male rats (Sprague-Dawley, 250-300 g, Charles River France or CERJ) received an oral administration of the compounds to be tested or their vehicle. 30 min. after this bolus, the animals were slaughtered by decapitation using a guillotine. The arterial and venous blood was collected at 4° C. and centrifuged cold, then the sera were frozen at −20° C. After thawing, the serum level of PTH (1-34+1-84) was measured by a radioimmunology test (IRMA kit, rat, Immutopics).

[2] = tested on: serum level of PTH (1-34+1-84); test: PTH measurement in rats with chronic renal failure (5/6 nephrectomy); type: in vivo, rat; conditions: oral, dose 10 mg/kg, 5/6 nephrectomised rats, ten days after nephrectomy, fasted 16 h, serum 30 min after dosing
Source text: II—Rats with Chronic Renal Failure
Chronic renal failure (CRF) was induced in male rats (220-250 g, Sprague-Dawley, CERJ) by ablation of ⅚ of the total renal mass. After anaesthesia (Imalgene 1000), the rats were subjected to exeresis of the right kidney and ablation of both ends of the left kidney, representing approximately ⅔ of the organ).
The incision was cauterised by application of dry ice. To compensate for the loss of blood volume, the animals received an intravenous injection of physiological serum. Two days after the procedure and for the remainder of the trial, the rats were fed with a standard diet (UAR or Safe) and drank phosphate-enriched (1.2%) Volvic® water at will. The procedure was carried out either at the supplier's or at the laboratory. Ten days after nephrectomy, the animals which had been fasting for 16 hours entered the trial. The compounds to be tested or their vehicle were administered orally 30 min. prior to sacrifice. The arterial and venous blood was at 4° C. after decapitation using a guillotine and was centrifuged cold. The sera were frozen a −20° C. After thawing, the serum level of PTH (1-34+1-84) was measured by a radioimmunology test (IRMA kit, rat, Immutopics).

Row | SMILES | inhibition in vivo at 30 mg/kg [1] | % PTH reduction at 30 min. relative to the untreated group (CRF rat) [2] | PTH level reduced relative to the control group ([1]; oral administration, dose of 30 mg/kg, intact rats, 30 min)
1 | Cn1nnc(-c2cccc(NC(=O)N(CCC(c3ccccc3)c3ccccc3)CCN3CCOCC3)c2)n1 (single isomer, unassigned) [Example 85, 1-(3,3-diphenylpropyl)-3-[3-(2-methyl-2H-tetrazol-5-yl)phenyl]-1-(2-morpholin-4-ylethyl)urea] | 88% | 70% | 
2 | COC(=O)c1cccc(NC(=O)N(CCC(c2ccccc2)c2ccccc2)CCN2CCOCC2)c1 [Example 1, 3-[3-(3,3-diphenylpropyl)-3-(2-morpholin-4-ylethyl)ureido]benzoic acid methyl ester] | 56% |  | 
3 | CC(C)(C)OC(=O)c1cccc(NC(=O)N(CCC(c2ccccc2)c2ccccc2)CCN2CCOCC2)c1 [Example 40, 3-[3-(3,3-diphenylpropyl)-3-(2-morpholin-4-ylethyl)ureido]benzoic acid tertbutyl ester hydrochloride] | 21% |  | 
4 | CCC(=O)c1cccc(NC(=O)N(CCC(c2ccccc2)c2ccccc2)CCN2CCOCC2)c1 [Example 42] | 69% |  | 
5 | O=C(Nc1ccc(Cl)c(C(F)(F)F)c1)N(CCC(c1ccccc1)c1ccccc1)CCN1CCOCC1 [Example 43, 3-(4-chloro-3-trifluoromethylphenyl)-1-(3,3-diphenylpropyl)-1-(2-morpholin-4-ylethyl)urea hydrochloride] | 43% |  | 
6 | CC(C)OC(=O)c1cccc(NC(=O)N(CCC(c2ccccc2)c2ccccc2)CCN2CCOCC2)c1 [Example 48, 3-[3-(3,3-diphenylpropyl)-3-(2-morpholin-4-ylethyl)ureido]benzoic acid isopropyl ester hydrochloride] | 32% |  | 
7 | CC(C)OC(=O)c1cc(NC(=O)N(CCC(c2ccccc2)c2ccccc2)CCN2CCOCC2)ccc1Cl [Example 51, 2-chloro-5-[3-(3,3-diphenylpropyl)-3-(2-morpholin-4-ylethyl)ureido]benzoic acid isopropyl ester hydrochloride] | 13% |  | 
8 | Cl.O=C(Nc1cccc(-c2cnco2)c1)N(CCC(c1ccccc1)c1ccccc1)CCN1CCOCC1 [Example 68, 1-(3,3-diphenylpropyl)-1-(2-morpholin-4-ylethyl)-3-(3-oxazol-5-ylphenyl)urea hydrochloride] | 94% | 67% | 94%
9 | O=C(Nc1cccc(-c2ccco2)c1)N(CCC(c1ccccc1)c1ccccc1)CCN1CCOCC1 [Example 76A, 1-(3,3-diphenylpropyl)-3-(3-furan-2-ylphenyl)-1-(2-morpholin-4-ylethyl)urea hydrochloride] | 14% |  | 
